Assay results published in ChEMBL document CHEMBL1909046, “DrugMatrix in vitro pharmacology data”.

Assays:
[1] = target: 5-hydroxytryptamine receptor 4 (Cavia porcellus, UniProt O70528); format: cell membranes, Dunkin-Hartley, Striatum, Membrane; further: in other assays of this panel Not Active means under 50% inhibition at 10 µM
[2] = target: T1, Vasoactive intestinal polypeptide receptor 1 (Homo sapiens, UniProt P32241); format: cell membranes, Membrane; settings: ht-29; further: in other assays of this panel Not Active means under 50% inhibition at 10 µM
T1 sequence (P32241 whole entry): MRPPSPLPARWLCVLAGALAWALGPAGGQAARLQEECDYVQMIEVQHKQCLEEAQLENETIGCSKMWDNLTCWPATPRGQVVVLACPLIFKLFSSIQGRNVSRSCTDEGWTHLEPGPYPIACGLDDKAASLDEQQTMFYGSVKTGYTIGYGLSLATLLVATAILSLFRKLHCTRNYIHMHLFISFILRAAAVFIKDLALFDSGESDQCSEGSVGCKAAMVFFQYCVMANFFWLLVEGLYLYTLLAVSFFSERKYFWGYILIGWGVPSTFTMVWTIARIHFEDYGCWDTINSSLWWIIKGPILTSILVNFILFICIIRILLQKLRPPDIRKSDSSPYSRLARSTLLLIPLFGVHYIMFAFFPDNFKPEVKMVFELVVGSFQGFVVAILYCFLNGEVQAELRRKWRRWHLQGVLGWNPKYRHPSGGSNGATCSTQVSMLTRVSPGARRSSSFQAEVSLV

[3] = target: T2, Endothelin-1 receptor (Homo sapiens, UniProt P25101); format: cell membranes, CHO-K1, Membrane; settings: cho-k1; further: in other assays of this panel Not Active means under 50% inhibition at 10 µM
T2 sequence (P25101 whole entry): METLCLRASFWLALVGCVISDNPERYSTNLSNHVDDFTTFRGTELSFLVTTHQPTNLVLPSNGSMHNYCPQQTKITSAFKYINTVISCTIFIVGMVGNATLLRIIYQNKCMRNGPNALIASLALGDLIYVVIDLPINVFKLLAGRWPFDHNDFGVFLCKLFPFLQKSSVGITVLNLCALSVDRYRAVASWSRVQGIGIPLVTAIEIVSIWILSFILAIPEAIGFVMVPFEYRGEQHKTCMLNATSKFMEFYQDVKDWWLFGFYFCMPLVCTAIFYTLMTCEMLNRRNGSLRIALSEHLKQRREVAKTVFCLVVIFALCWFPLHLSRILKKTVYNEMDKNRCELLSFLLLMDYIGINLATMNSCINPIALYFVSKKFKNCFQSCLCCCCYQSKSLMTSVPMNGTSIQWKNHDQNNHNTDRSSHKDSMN

[4] = DRUGMATRIX: Interleukin IL-1 radioligand binding (ligand: [125I] interleukin 1beta); format: cell membranes, Membrane; settings: nih3t3; Not Active = under 50% inhibition at 10 µM
[5] = DRUGMATRIX: Purinergic P2X radioligand binding (ligand: [3H] alpha, beta-Methylene-ATP); format: cell membranes, Oryctolagus cuniculus, New Zealand albino, Urinary bladder, Membrane; settings: Not Active = under 50% inhibition at 10 µM
[6] = target: T3, 5-hydroxytryptamine receptor 1A (Rattus norvegicus, UniProt P19327); format: cell membranes, CHO-K1, Membrane; settings: cho-k1; further: in other assays of this panel Not Active means under 50% inhibition at 10 µM
T3 sequence (P19327 whole entry): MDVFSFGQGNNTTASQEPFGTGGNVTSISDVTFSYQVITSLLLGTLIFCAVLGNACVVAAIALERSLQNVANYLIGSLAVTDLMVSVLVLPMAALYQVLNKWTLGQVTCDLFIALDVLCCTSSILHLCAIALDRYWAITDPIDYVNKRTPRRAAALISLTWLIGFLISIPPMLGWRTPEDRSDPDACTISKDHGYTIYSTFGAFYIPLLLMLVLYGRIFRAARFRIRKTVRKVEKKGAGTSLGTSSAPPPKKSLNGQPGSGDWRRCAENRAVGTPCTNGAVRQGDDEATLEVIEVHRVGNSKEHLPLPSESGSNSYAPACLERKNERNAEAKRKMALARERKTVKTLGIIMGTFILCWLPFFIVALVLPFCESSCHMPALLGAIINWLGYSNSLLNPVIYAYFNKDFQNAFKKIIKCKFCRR

[7] = target: Cytochrome P450 2C19 (Homo sapiens, UniProt P33261); settings: bti-tn-5b1-4; further: in other assays of this panel Not Active means under 50% inhibition at 10 µM
[8] = target: Voltage-gated inwardly rectifying potassium channel KCNH2 (Homo sapiens, UniProt Q12809); settings: hek293; further: in other assays of this panel Not Active means under 50% inhibition at 10 µM
Chain of Voltage-gated inwardly rectifying potassium channel KCNH2 (Q12809 whole entry): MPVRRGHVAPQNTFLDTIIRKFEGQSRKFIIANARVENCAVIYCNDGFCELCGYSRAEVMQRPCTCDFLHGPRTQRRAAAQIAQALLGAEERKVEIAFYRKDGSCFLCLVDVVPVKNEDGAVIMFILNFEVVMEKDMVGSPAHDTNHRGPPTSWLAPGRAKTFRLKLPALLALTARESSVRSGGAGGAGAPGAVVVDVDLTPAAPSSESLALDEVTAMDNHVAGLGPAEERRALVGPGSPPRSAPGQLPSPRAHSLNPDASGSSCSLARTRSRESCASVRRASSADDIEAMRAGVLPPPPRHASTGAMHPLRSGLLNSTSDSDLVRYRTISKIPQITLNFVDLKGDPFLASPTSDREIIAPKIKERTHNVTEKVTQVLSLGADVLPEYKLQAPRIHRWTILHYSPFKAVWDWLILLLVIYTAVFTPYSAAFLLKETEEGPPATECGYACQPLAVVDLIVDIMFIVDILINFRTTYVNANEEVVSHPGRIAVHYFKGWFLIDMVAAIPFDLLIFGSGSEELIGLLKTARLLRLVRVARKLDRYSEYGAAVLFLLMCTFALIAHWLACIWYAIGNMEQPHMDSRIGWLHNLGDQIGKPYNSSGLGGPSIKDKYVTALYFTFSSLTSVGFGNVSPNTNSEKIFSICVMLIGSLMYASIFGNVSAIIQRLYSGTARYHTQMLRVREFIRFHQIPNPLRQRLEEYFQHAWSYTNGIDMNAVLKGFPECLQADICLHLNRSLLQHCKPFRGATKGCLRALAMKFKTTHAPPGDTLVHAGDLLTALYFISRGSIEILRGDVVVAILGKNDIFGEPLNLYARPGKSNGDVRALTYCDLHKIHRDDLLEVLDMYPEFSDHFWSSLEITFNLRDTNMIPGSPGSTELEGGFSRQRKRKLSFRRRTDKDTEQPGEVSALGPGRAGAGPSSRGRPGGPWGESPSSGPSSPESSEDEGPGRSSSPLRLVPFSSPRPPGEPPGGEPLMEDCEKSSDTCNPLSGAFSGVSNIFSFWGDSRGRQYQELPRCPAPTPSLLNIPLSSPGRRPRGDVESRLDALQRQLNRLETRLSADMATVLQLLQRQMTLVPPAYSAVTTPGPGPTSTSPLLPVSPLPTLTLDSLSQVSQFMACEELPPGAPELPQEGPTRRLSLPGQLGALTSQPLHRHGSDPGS

Chain of 5-hydroxytryptamine receptor 4 (O70528 whole entry): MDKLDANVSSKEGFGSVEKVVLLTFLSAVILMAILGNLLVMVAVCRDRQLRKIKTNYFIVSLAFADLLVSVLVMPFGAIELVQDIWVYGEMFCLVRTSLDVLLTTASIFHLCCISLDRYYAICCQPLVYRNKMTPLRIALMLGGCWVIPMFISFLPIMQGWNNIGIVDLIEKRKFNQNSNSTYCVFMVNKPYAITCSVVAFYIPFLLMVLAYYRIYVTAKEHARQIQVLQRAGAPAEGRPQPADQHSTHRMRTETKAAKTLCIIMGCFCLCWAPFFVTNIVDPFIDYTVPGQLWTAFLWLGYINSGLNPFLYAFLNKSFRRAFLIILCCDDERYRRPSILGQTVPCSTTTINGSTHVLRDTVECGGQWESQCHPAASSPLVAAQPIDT
Chain of Cytochrome P450 2C19 (P33261 whole entry): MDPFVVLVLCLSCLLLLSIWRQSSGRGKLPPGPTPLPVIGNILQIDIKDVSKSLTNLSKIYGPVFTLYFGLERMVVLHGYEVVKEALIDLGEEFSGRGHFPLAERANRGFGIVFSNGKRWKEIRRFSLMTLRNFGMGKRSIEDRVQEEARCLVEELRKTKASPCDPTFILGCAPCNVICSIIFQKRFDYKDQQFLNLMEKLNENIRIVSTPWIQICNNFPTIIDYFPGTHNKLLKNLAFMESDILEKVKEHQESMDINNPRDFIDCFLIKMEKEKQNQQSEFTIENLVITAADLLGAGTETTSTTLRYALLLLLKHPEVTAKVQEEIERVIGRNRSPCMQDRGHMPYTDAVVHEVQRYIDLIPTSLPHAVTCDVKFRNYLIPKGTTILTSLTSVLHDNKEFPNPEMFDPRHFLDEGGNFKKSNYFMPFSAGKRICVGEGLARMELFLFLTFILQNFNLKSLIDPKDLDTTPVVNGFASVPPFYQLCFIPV

CN(Cc1cnc2nc(N)nc(N)c2n1)c1ccc(C(=O)N[C@@H](CCC(=O)O)C(=O)O)cc1 [METHOTREXATE]
Not Active: IC50 [1] | IC50 [2] | IC50 [3] | IC50 [4] | Ki [4] | IC50 [5] | Ki [5] | IC50 [6] | IC50 [7] | Ki [7] | IC50 [8] | Ki [8]

COC(=O)c1ccccc1O [METHYL SALICYLATE]
Not Active: IC50 [1] | IC50 [2] | IC50 [3] | IC50 [4] | Ki [4] | IC50 [5] | Ki [5] | IC50 [6] | IC50 [7] | Ki [7] | IC50 [8] | Ki [8]

COc1ccc2cc(CCC(C)=O)ccc2c1 [NABUMETONE]
Not Active: IC50 [1] | IC50 [2] | IC50 [3] | IC50 [4] | Ki [4] | IC50 [5] | Ki [5] | IC50 [6] | IC50 [7] | Ki [7] | IC50 [8] | Ki [8]

O=C(O)c1cccnc1 [NIACIN]
Not Active: IC50 [1] | IC50 [2] | IC50 [3] | IC50 [4] | Ki [4] | IC50 [5] | Ki [5] | IC50 [6] | IC50 [7] | Ki [7] | IC50 [8] | Ki [8]

C[C@]12C/C(=C/O)C(=O)C[C@@H]1CC[C@@H]1[C@@H]2CC[C@@]2(C)[C@H]1CC[C@]2(C)O [OXYMETHOLONE]
Not Active: IC50 [1] | IC50 [2] | IC50 [3] | IC50 [4] | Ki [4] | IC50 [5] | Ki [5] | IC50 [6] | IC50 [7] | Ki [7] | IC50 [8] | Ki [8]

CC(C)(CO)C(O)C(=O)NCCCO (centres undefined) [PANTHENOL]
Not Active: IC50 [1] | IC50 [2] | IC50 [3] | IC50 [4] | Ki [4] | IC50 [5] | Ki [5] | IC50 [6] | IC50 [7] | Ki [7] | IC50 [8] | Ki [8]

CCCCC1C(=O)N(c2ccccc2)N(c2ccccc2)C1=O [PHENYLBUTAZONE]
Not Active: IC50 [1] | IC50 [2] | IC50 [3] | IC50 [4] | Ki [4] | IC50 [5] | Ki [5] | IC50 [6] | IC50 [7] | Ki [7] | IC50 [8] | Ki [8]

Cc1cccc(Nc2cc(Cl)nc(SCC(=O)O)n2)c1C [PIRINIXIC ACID]
Not Active: IC50 [1] | IC50 [2] | IC50 [3] | IC50 [4] | Ki [4] | IC50 [5] | Ki [5] | IC50 [6] | IC50 [7] | Ki [7] | IC50 [8] | Ki [8]

CC[C@H](C)C(=O)O[C@H]1C[C@H](O)C=C2C=C[C@H](C)[C@H](CC[C@@H](O)C[C@@H](O)CC(=O)O)[C@H]21 [PRAVASTATIN]
Not Active: IC50 [1] | IC50 [2] | IC50 [3] | IC50 [4] | Ki [4] | IC50 [5] | Ki [5] | IC50 [6] | IC50 [7] | Ki [7] | IC50 [8] | Ki [8]

COBALT(II) ACETYLACETONATE
Not Active: IC50 [1] | Ki [1] | IC50 [2] | Ki [2] | IC50 [3] | Ki [3] | IC50 [4] | Ki [4] | IC50 [5] | Ki [5] | IC50 [6] | Ki [6] | IC50 [7] | Ki [7] | IC50 [8] | Ki [8]
